From patent US7138361B2, “Herbicidal heterocycles” (E. I. du Pont de Nemours and Company, priority 2000, dated 2006)

Legend:
Format in all cases: in vivo
[1] = test system: cocklebur (Xanthium strumarium); assay: Test B postemergence
Outline: (§1)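 Pre: seeded pots sprayed, chemical in non-phytotoxic solvent/surfactant mix. Post: plants 2–18 cm, 1–4 leaf, same formulation. Greenhouse 13–15 d; visual % control vs untreated, 0–100 scale.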

[2] = test system: barnyardgrass (Echinochloa crus-galli); assay: Test B postemergence
Outline: as §1

[3] = test system: velvetleaf (Abutilon theophrasti); assay: Test B postemergence
Outline: as §1

[4] = test system: crabgrass (Digitaria sanguinalis); assay: Test B postemergence
Outline: as §1

[5] = test system: pigweed (Amaranthus retroflexus); assay: Test B postemergence
Outline: as §1

[6] = test system: lambsquarters (Chenopodium album); assay: Test B postemergence
Outline: as §1

[7] = test system: giant foxtail (Setaria faberii); assay: Test B postemergence
Outline: as §1

[8] = test system: Surinam grass (Brachiaria decumbens); assay: Test B postemergence
Outline: as §1

[9] = test system: corn (Zea mays); assay: Test B postemergence
Outline: as §1

[10] = test system: wild oat (Avena fatua); assay: Test B postemergence
Outline: as §1

[11] = test system: morning glory (Ipomoea hederacea); assay: Test B postemergence
Outline: as §1

[12] = test system: wheat (Triticum aestivum); assay: Test B postemergence
Outline: as §1

[13] = test system: blackgrass (Alopecurus myosuroides); assay: Test B postemergence
Outline: as §1

[14] = test system: barnyardgrass (Echinochloa crus-galli); assay: Test C flooded paddy test; conditions: for Barnyardgrass plant response rating: Flooded Paddy, scale 0 to 100, 0 no effect, 100 complete control; for Plant response rating, Barnyardgrass / Plant response rating (scale 0 to 100), Barnyardgrass: flooded paddy test; for Plant response rating, Barnyardgrass: scale 0 to 100 (0 no effect, 100 complete control); for Plant response rating (scale 0 to 100), Barnyardgrass: visually evaluated after 12 to 14 days, 0 = no effect, 100 = complete control
Outline: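 Rice and three paddy weeds were grown to the 2-leaf stage under flooded conditions, then treated and kept in a greenhouse for 12–14 days. Response was rated visually against untreated controls on a 0–100 scale, where 100 is complete control.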

[15] = test system: Sunflower; assay: Test C preemergence; conditions: Rate 500 g/ha, visual evaluation after 12 to 14 days
[16] = test system: Sunflower; assay: Test C preemergence; conditions: Rate 62 g/ha, scale 0 to 100
[17] = test system: cocklebur (Xanthium strumarium); assay: Test B preemergence
Outline: as §1

[18] = test system: barnyardgrass (Echinochloa crus-galli); assay: Test B preemergence
Outline: as §1

[19] = test system: velvetleaf (Abutilon theophrasti); assay: Test B preemergence
Outline: as §1

[20] = test system: crabgrass (Digitaria sanguinalis); assay: Test B preemergence
Outline: as §1

[21] = test system: pigweed (Amaranthus retroflexus); assay: Test B preemergence
Outline: as §1

[22] = test system: lambsquarters (Chenopodium album); assay: Test B preemergence
Outline: as §1

[23] = test system: giant foxtail (Setaria faberii); assay: Test B preemergence
Outline: as §1

[24] = test system: Surinam grass (Brachiaria decumbens); assay: Test B preemergence
Outline: as §1

[25] = test system: corn (Zea mays); assay: Test B preemergence
Outline: as §1

[26] = test system: rice (Oryza saliva); assay: Test B preemergence
Outline: as §1

[27] = test system: morning glory (Ipomoea hederacea); assay: Test B preemergence
Outline: as §1

[28] = Rate 125 g/ha, scale 0 to 100, 0 no effect, 100 complete control
[29] = Rate 500 g/ha, scale 0 to 100, 0 is no effect, 100 is complete control, 13 to 15 days
[30] = Preemergence, Rate 500 g/ha, scale 0 to 100, 0 no effect, 100 complete control
[31] = preemergence, Rate 125 g/ha, scale of 0 to 100 where 0 is no effect and 100 is complete control, 13 to 15 days
[32] = Rate 500 g/ha, scale 0 (no effect) to 100 (complete control), 13 to 15 days

COc1cc(N2CCC(n3ccc(C(C)(C)C)n3)C2=O)ccc1Cl (centres unmarked) [Compound 117]
20: Plant response rating, Corn [25, 31]
90: Plant response rating, Cocklebur [1, 28] | Plant response rating, Barnyardgrass [2, 29] | Plant response rating, Lambsquarters [6, 28] | Barnyardgrass plant response rating ([14]; Rate 250 g/ha) | Barnyardgrass plant response rating ([14]; Rate 500 g/ha)
65: Plant response rating (0 to 100), Sunflower [15]
80: Plant response rating, Pigweed [5, 28] | Plant response rating, Barnyardgrass ([14]; Rate 125 g/ha) | Plant response rating, Morningglory [27, 31]
30: Plant response rating, Crabgrass [4, 28] | Plant response rating, Surinam grass [8, 28] | Plant response rating, Wheat [12, 28] | Plant response rating, Corn [25, 30]
100: Plant response rating, Cocklebur [1, 29] | Plant response rating, Cocklebur [17, 30] | Plant response rating, Barnyardgrass [18, 30] | Plant response rating, Barnyardgrass [18, 31] | Plant response rating, Velvetleaf [19, 30] | Plant response rating, Crabgrass [20, 30] | Plant response rating, Crabgrass [20, 31] | Plant response rating, Pigweed [21, 30] | Plant response rating, Pigweed [21, 31] | Plant response rating, Lambsquarters [22, 30] | Plant response rating, Lambsquarters [22, 31] | Plant response rating, Foxtail, Giant [23, 30] | Plant response rating, Foxtail, Giant [23, 31] | Plant response rating, Surinam grass [24, 30] | Plant response rating, Surinam grass [24, 31] | Plant response rating, Morningglory [27, 30]
35: Plant response rating, Sunflower [16]
0: Plant response rating, Foxtail, Giant [7, 28] | Plant response rating, Corn [9, 28] | Plant response rating, Corn [9, 29] | Plant response rating, Blackgrass [13, 28] | Plant response rating, Blackgrass [13, 29] | Plant response rating, Rice [26, 31]
70: Plant response rating, Velvetleaf [3, 28] | Plant response rating, Morningglory [11, 28] | Plant response rating, Cocklebur [17, 31] | Plant response rating, Rice [26, 30]
40: Plant response rating, Barnyardgrass [2, 28] | Plant response rating, Surinam grass [8, 29] | Plant response rating, Wild Oat [10, 28] | Plant response rating, Barnyardgrass ([14]; Rate 62 g/ha) | Plant response rating, Velvetleaf [19, 31]

CCC(C)c1ccn(C2OCN(c3cccc(OC(F)F)c3)C2=O)n1 (centres unmarked) [Compound 134]
0: Plant response rating, Velvetleaf [3, 28] | Plant response rating, Corn [9, 28] | Plant response rating, Wild Oat [10, 28] | Plant response rating, Wheat [12, 28] | Plant response rating, Blackgrass [13, 28] | Plant response rating, Blackgrass [13, 29] | Plant response rating, Sunflower [16] | Plant response rating, Cocklebur [17, 30] | Plant response rating, Cocklebur [17, 31] | Plant response rating, Velvetleaf [19, 30] | Plant response rating, Velvetleaf [19, 31] | Plant response rating, Morningglory [27, 30] | Plant response rating, Morningglory [27, 31]
30: Plant response rating, Cocklebur [1, 28] | Plant response rating, Cocklebur [1, 29] | Plant response rating, Foxtail, Giant [7, 28]
20: Plant response rating, Crabgrass [4, 28] | Plant response rating, Surinam grass [8, 28] | Plant response rating, Corn [9, 29] | Plant response rating (0 to 100), Sunflower [15] | Plant response rating, Corn [25, 31]
60: Plant response rating, Pigweed [5, 28] | Plant response rating, Surinam grass [8, 29]
10: Plant response rating, Morningglory [11, 28]
100: Plant response rating, Barnyardgrass [2, 29] | Plant response rating, Lambsquarters [6, 28] | Barnyardgrass plant response rating ([14]; Rate 500 g/ha) | Plant response rating, Barnyardgrass ([14]; Rate 125 g/ha) | Plant response rating, Barnyardgrass ([14]; Rate 250 g/ha) | Plant response rating (scale 0 to 100), Barnyardgrass ([14]; Rate 62 g/ha) | Plant response rating, Barnyardgrass [18, 30] | Plant response rating, Barnyardgrass [18, 31] | Plant response rating, Crabgrass [20, 30] | Plant response rating, Crabgrass [20, 31] | Plant response rating, Pigweed [21, 30] | Plant response rating, Pigweed [21, 31] | Plant response rating, Lambsquarters [22, 30] | Plant response rating, Lambsquarters [22, 31] | Plant response rating, Foxtail, Giant [23, 30] | Plant response rating, Foxtail, Giant [23, 31] | Plant response rating, Surinam grass [24, 30] | Plant response rating, Rice [26, 30] | Plant response rating, Rice [26, 31]
90: Plant response rating, Barnyardgrass [2, 28] | Plant response rating, Surinam grass [24, 31] | Plant response rating, Corn [25, 30]

COc1cc(N2CCC(n3ccc(C(C)C)n3)C2=O)ccc1Br (centres unmarked) [Compound 140]
100: Plant response rating, Lambsquarters [6, 32] | Plant response rating, Morningglory [11, 32] | Barnyardgrass plant response rating ([14]; Rate 500 g/ha) | Plant response rating, Barnyardgrass ([14]; Rate 125 g/ha) | Plant response rating, Barnyardgrass ([14]; Rate 250 g/ha) | Plant response rating, Barnyardgrass [18, 30] | Plant response rating, Barnyardgrass [18, 31] | Plant response rating, Crabgrass [20, 30] | Plant response rating, Crabgrass [20, 31] | Plant response rating, Pigweed [21, 30] | Plant response rating, Pigweed [21, 31] | Plant response rating, Lambsquarters [22, 30] | Plant response rating, Lambsquarters [22, 31] | Plant response rating, Foxtail, Giant [23, 30] | Plant response rating, Foxtail, Giant [23, 31] | Plant response rating, Surinam grass [24, 30] | Plant response rating, Surinam grass [24, 31] | Plant response rating, Morningglory [27, 30]
20: Plant response rating, Crabgrass [4, 28] | Plant response rating, Cocklebur [17, 31] | Plant response rating, Corn [25, 30] | Plant response rating, Rice [26, 31]
60: Plant response rating, Cocklebur [1, 28] | Plant response rating, Velvetleaf [3, 32] | Plant response rating, Pigweed [5, 28] | Plant response rating, Cocklebur [17, 30] | Plant response rating, Velvetleaf [19, 31]
40: Plant response rating, Rice [26, 30]
50: Plant response rating (scale 0 to 100), Barnyardgrass ([14]; Rate 62 g/ha)
90: Plant response rating, Cocklebur [1, 32] | Plant response rating, Pigweed [5, 32] | Plant response rating (0 to 100), Sunflower [15]
30: Plant response rating, Sunflower [16]
0: Plant response rating, Barnyardgrass [2, 28] | Plant response rating, Velvetleaf [3, 28] | Plant response rating, Foxtail, Giant [7, 28] | Plant response rating, Surinam grass [8, 28] | Plant response rating, Surinam grass [8, 32] | Plant response rating, Corn [9, 28] | Plant response rating, Corn [9, 32] | Plant response rating, Wild Oat [10, 28] | Plant response rating, Wild Oat [10, 32] | Plant response rating, Morningglory [11, 28] | Plant response rating, Wheat [12, 28] | Plant response rating, Wheat [12, 32] | Plant response rating, Blackgrass [13, 28] | Plant response rating, Blackgrass [13, 32] | Plant response rating, Corn [25, 31] | Plant response rating, Morningglory [27, 31]
70: Plant response rating, Lambsquarters [6, 28] | Plant response rating, Foxtail, Giant [7, 32]
80: Plant response rating, Barnyardgrass [2, 32] | Plant response rating, Crabgrass [4, 32] | Plant response rating, Velvetleaf [19, 30]
